Here are results for 16 molecules from US20200407712A1, “ARRAY-BASED CYCLIC PEPTIDE LIBRARIES” (HealthTell Inc., priority 2018, published 2020).

Data set [1] can be described thus: intramolecular disulfide formation by ambient air oxidation of bis-Cys peptides on SiO2 array surface after side-chain deprotection (TFA/TMS-OTf) and NH3-gas DKP detachment; fraction oxidized from MALDI relative peak intensities. Conditions: the molecule shown is the open-chain precursor, none (dry film on SiO2, ambient air), other, 18.0 h, scale: fraction oxidized.

The test system of data set [2] is Rituximab. The data set is described as follows: Rituximab binding to constrained peptide arrays. Here is the method: Cyclized and linear microarrays from Click and lactam wafers were probed using a seven point dilution series of Rituximab (Creative Diagnostics, TAB-016) ranging from 24.0 nM to 0.032 nM with threefold steps. Bound Rituximab was detected using an anti-human IgG-Alexa Fluor™ 555 (Thermo-Fisher) at 4.0 nM. All incubation times were for 1 hr and washes between incubation steps were conducted using Phosphate Buffered Saline with 0.05% Tween 20 (PBST). After the secondary detection step, slides were sequentially washed using PBST, distilled water and a 90% isopropanol rinse. Slides were immediately dried by centrifugation following the isopropanol rinse. Imaged arrays were gridded using commercial software to extract intensities from individual features. Data was analyzed using a custom R script. For both chemistries tested, 24.0 nM Rituximab gave the greatest differential between linear and cyclic copies of the same peptide (present on the same array) and was used for example boxplots. […] In the peptide sequence, B and X represent lactam cyclization residues Lys and Glu respectively. Individual feature replicates for BAEANPSX (cyclic) and BAEANPS (linear) from replicate arrays assayed on two separate slides were used to prepare the boxplot. A p-value comparing the replicate feature intensities was calculated using the anova function in R.

Data set [3] concerns Rituximab. The data set is described as follows: Rituximab binding to biotinyl peptides captured on streptavidin ELISA plates. To be noted: streptavidin ELISA plate; Rituximab 66.0 to 0.03 nM; absorbance at 450 nm. Here is the method: To confirm Rituximab binding to the sequences identified in Example 22, the peptides in Table 1 were prepared by Fmoc-based solid phase synthesis. Peptides were biotinylated at either the N-terminal or through the […] side chain with a long chain biotin (LCBiot). Biotinylated peptides were bound to streptavidin ELISA plates. Rituximab in PBST was applied to the array in a dilution series ranging from 66.0 to 0.03 nM using three-fold dilution steps. Plates were incubated for 1 hr at 37° C. and washed 3× with PBST. An anti-human IgG-HRP conjugate was applied to the array at 1.0 μg/mL for 1 hr at 37° C. Plates were washed 3× with PBST and TMB substrate applied for 15 min at 37° C. followed by 2N HCl to stop the reaction. Absorbance was read at 450 nm and the median of triplicate wells plotted against mAb concentration in FIG. 19. Rituximab bound constrained peptide HTP115 but not linear version HTP113 or a constrained sequence with LCBiot at the N-terminal (HTP114). Rituximab also binds to HTP116, a biotinylated version of a cyclic disulfide sequence previously reported to bind to Rituximab (Perosa et al. Blood, 2006, 107 (3), 1070-1077).

Molecule `COc1cc(OC)c([P+](CC(=O)N[C@@H](CCCCN)C(=O)N[C@@H](CS)C(=O)N2CCC[C@H]2C(=O)NCC(=O)N[C@@H](CS)C(=O)N[C@@H](CC(C)C)C(=O)NCCCC[C@@H]2NC(=O)[C@@H]3CCCN3C2=O)(c2c(OC)cc(OC)cc2OC)c2c(OC)cc(OC)cc2OC)c(OC)c1` yielded a ring closure, fraction oxidized by MALDI in data set [1] (14-membered ring) of 0.73.
With `COc1cc(OC)c([P+](CC(=O)N[C@@H](CCCCN)C(=O)N[C@@H](CS)C(=O)N[C@@H](CS)C(=O)N[C@@H](CC(C)C)C(=O)NCCCC[C@@H]2NC(=O)[C@@H]3CCCN3C2=O)(c2c(OC)cc(OC)cc2OC)c2c(OC)cc(OC)cc2OC)c(OC)c1`, the ring closure, fraction oxidized by MALDI in data set [1] (8-membered ring) was found to be 0.78.
In the case of `COc1cc(OC)c([P+](CC(=O)N[C@@H](CCCCN)C(=O)N[C@@H](CS)C(=O)N[C@H](C(=O)N2CCC[C@H]2C(=O)NCC(=O)N[C@@H](Cc2c[nH]cn2)C(=O)N[C@@H](CS)C(=O)N[C@@H](CC(C)C)C(=O)NCCCC[C@@H]2NC(=O)[C@@H]3CCCN3C2=O)[C@@H](C)O)(c2c(OC)cc(OC)cc2OC)c2c(OC)cc(OC)cc2OC)c(OC)c1`, the ring closure, fraction oxidized by MALDI in data set [1] (20-membered ring) was 0.63.
Molecule `COc1cc(OC)c([P+](CC(=O)N[C@@H](CS)C(=O)N2CCC[C@H]2C(=O)NCC(=O)N[C@@H](CS)C(=O)NCCCC[C@@H]2NC(=O)[C@@H]3CCCN3C2=O)(c2c(OC)cc(OC)cc2OC)c2c(OC)cc(OC)cc2OC)c(OC)c1` yielded a ring closure, fraction oxidized by MALDI in data set [1] (14-membered ring) of 0.77.
The molecule `COc1cc(OC)c([P+](CC(=O)N[C@@H](CS)C(=O)N[C@@H](CCC(N)=O)C(=O)N2CCC[C@H]2C(=O)NCC(=O)N[C@@H](Cc2ccc(O)cc2)C(=O)N[C@@H](CS)C(=O)NCCCC[C@@H]2NC(=O)[C@@H]3CCCN3C2=O)(c2c(OC)cc(OC)cc2OC)c2c(OC)cc(OC)cc2OC)c(OC)c1` came in with a ring closure, fraction oxidized by MALDI in data set [1] (20-membered ring) of 0.75.
The molecule `COc1cc(OC)c([P+](CC(=O)N[C@@H](CS)C(=O)N[C@@H](CCC(N)=O)C(=O)N[C@@H](Cc2ccc(O)cc2)C(=O)N[C@@H](CS)C(=O)NCCCC[C@@H]2NC(=O)[C@@H]3CCCN3C2=O)(c2c(OC)cc(OC)cc2OC)c2c(OC)cc(OC)cc2OC)c(OC)c1` came in with a ring closure, fraction oxidized by MALDI in data set [1] (14-membered ring) of 0.72.
In data set [1] (20-membered ring), `COc1cc(OC)c([P+](CC(=O)N[C@@H](CS)C(=O)N[C@H](C(=O)N2CCC[C@H]2C(=O)NCC(=O)N[C@@H](Cc2c[nH]cn2)C(=O)N[C@@H](CS)C(=O)NCCCC[C@@H]2NC(=O)[C@@H]3CCCN3C2=O)[C@@H](C)O)(c2c(OC)cc(OC)cc2OC)c2c(OC)cc(OC)cc2OC)c(OC)c1` gave a ring closure, fraction oxidized by MALDI of 0.79.
Molecule `COc1cc(OC)c([P+](CC(=O)N[C@@H](CS)C(=O)N[C@H](C(=O)N[C@@H](CCC(N)=O)C(=O)N[C@@H](Cc2c[nH]cn2)C(=O)N[C@@H](Cc2ccc(O)cc2)C(=O)N[C@@H](CS)C(=O)NCCCC[C@@H]2NC(=O)[C@@H]3CCCN3C2=O)[C@@H](C)O)(c2c(OC)cc(OC)cc2OC)c2c(OC)cc(OC)cc2OC)c(OC)c1` showed a ring closure, fraction oxidized by MALDI in data set [1] (20-membered ring) of 0.75.
For `COc1cc(OC)c([P+](CC(=O)N[C@@H](CS)C(=O)N[C@H](C(=O)N[C@@H](Cc2c[nH]cn2)C(=O)N[C@@H](CS)C(=O)NCCCC[C@@H]2NC(=O)[C@@H]3CCCN3C2=O)[C@@H](C)O)(c2c(OC)cc(OC)cc2OC)c2c(OC)cc(OC)cc2OC)c(OC)c1`, the ring closure, fraction oxidized by MALDI in data set [1] (14-membered ring) is 0.78.
The same measure, in the same setting: with `COc1cc(OC)c([P+](CC(=O)N[C@@H](Cc2ccc(O)cc2)C(=O)N[C@@H](CS)C(=O)N2CCC[C@H]2C(=O)NCC(=O)N[C@@H](CS)C(=O)N[C@@H](CO)C(=O)NCCCC[C@@H]2NC(=O)[C@@H]3CCCN3C2=O)(c2c(OC)cc(OC)cc2OC)c2c(OC)cc(OC)cc2OC)c(OC)c1` the figure was 0.76.
For `COc1cc(OC)c([P+](CC(=O)N[C@@H](CS)C(=O)N[C@@H](CS)C(=O)NCCCC[C@@H]2NC(=O)[C@@H]3CCCN3C2=O)(c2c(OC)cc(OC)cc2OC)c2c(OC)cc(OC)cc2OC)c(OC)c1` [TMPP-Ac-Cys-Cys-DKP [DKP = N-epsilon of cyclo(Lys-Pro)]], the ring closure, fraction oxidized by MALDI in data set [1] (8-membered ring) was 0.8.
Take BAEANPSX: the “change of Rituximab binding upon Click cyclization” value in data set [2] (cyclic versus linear feature, Click array) is listed as “not”. Moreover, the “change of Rituximab binding upon lactam based cyclization” value in data set [2] (cyclic versus linear feature, lactam array) is given as “increases”. Also, the “Rituximab binding on lactam array (rank among binders)” value in data set [2] (lactam array, 24.0 nM Rituximab) is on record as “amongst the top Rituximab binders”.
In the case of “LCBiot-ACPYANPSLC amide (cyclic disulfide) [HTP116, reference compound]”, in data set [3], the “Rituximab binding to biotinyl peptide” value was “binds”.
On the same count and under the same terms, in the case of LCBiot-K(Ac)AEANPSQ amide [HTP113] it was “not”; in that of LCBiot-cyclo[KeAEANPSQ] [HTP114], “not”; in that of cyclo[KεAEANPSQ(LCBiot)] amide [HTP115], “bound”.
